Consider one compound from patent publication US9730445B2, “Herbicidal compositions comprising 4-amino-3-chloro-5-fluoro-6-(4-chloro-2-fluoro-3-methoxyphenyl) pyridine-2-carboxylic acid or a derivative thereof and fungicides” (DOW AGROSCIENCES LLC, priority 2013, dated 2017).

Values joined by “and” are separate entries in the source; they are usually repeats but may differ in a detail not shown here. Equal entries are not always repeated.

The subject of test [1] is CYPIR. Briefly: Postemergence foliar-applied weed control, direct-seeded rice (greenhouse). Format: in vivo, Cyperus iria L. (rice flatsedge). To be noted: 21 DAA. The procedure:
Seeds or nutlets of the desired test plant species were planted in a soil matrix prepared by mixing aloam or sandy loam soil (e.g., 28.6 percent silt, 18.8 percent clay, and 52.6 percent sand, with a pH of about 5.8 and an organic matter content of about 1.8 percent) and calcareous grit in an 80 to 20 ratio. The soil matrix was contained in plastic pots with a volume of 1 quart and a surface area of 83.6 square centimeters (cm^2). […] The plants were grown for 8-22 days in a greenhouse with an approximate 14 hour (h) photoperiod which was maintained at about 29° C. during the day and 26° C. during the night. Nutrients (Peters Excel® 15-5-15 5-Ca 2-Mg and iron chelate) were applied in the irrigation solution as needed and water was added on a regular basis. Supplemental lighting was provided with overhead metal halide 1000-Watt lamps as necessary. The plants were employed for testing when they reached the first through fourth true leaf stage.
Treatments consisted of the acid or esters of 4-amino-3-chloro-5-fluoro-6-(4-chloro-2-fluoro-3-methoxy-phenyl)pyridine-2-carboxylic acid (Compound A), each formulated as an SC (suspension concentrate), and various fungicidal components alone and in combination. Forms of compound A were applied on an acid equivalent basis.
For treatments comprised of formulated compounds, measured amounts of compounds were placed individually in 25 mL glass vials and diluted in a volume of 1.25% volume per volume (v/v) Agri-Dex® crop oil concentrate to obtain 12× stock solutions. […] Application solutions were prepared by adding an appropriate amount of each stock solution (e.g., 1 mL) and diluted to the appropriate final concentrations with the addition of […] of an aqueous mixture of 1.25% (v/v) crop oil concentrate so that the final spray solutions contained 1.25+/−0.05% (v/v) crop oil concentrate.
For treatments comprised of technical compounds, weighed amounts can be placed individually in 25 mL glass vials and dissolved in a volume of 97:3 volume per volume (v/v) acetone/dimethyl sulfoxide (DMSO) to obtain 12× stock solutions. […] When technical materials are used, the concentrated stock solutions can be added to the spray solutions so that the final acetone and DMSO concentrations of the application solutions are 16.2% and 0.5%, respectively.
As required, additional water and/or 97:3 v/v acetone/DMSO was added to individual application solutions so that the final acetone and DMSO concentrations of the application solutions being compared were 8.1% and 0.25%, respectively
All stock solutions and applications solutions were visually inspected for compound compatibility prior to application. Spray solutions were applied to the plant material with an overhead Mandel track sprayer equipped with 8002E nozzles calibrated to deliver 187 L/ha over an application area of 0.503 square meters (m^2) at a spray height of 18 to 20 inches (46 to 50 cm) above average plant canopy height. Control plants were sprayed in the same manner with the solvent blank.
The treated plants and control plants were placed in a greenhouse as described above and watered by sub-irrigation to prevent wash-off of the test compounds. After approximately 3 weeks, the condition of the test plants as compared with that of the untreated plants was determined visually and scored on a scale of 0 to 100 percent where 0 corresponds to no injury or growth inhibition and 100 corresponds to complete kill.
Colby's equation was used to determine the herbicidal effects expected from the mixtures (Colby, S. R. Calculation of the synergistic and antagonistic response of herbicide combinations. Weeds 1967, 15, 20-22.).
The following equation was used to calculate the expected activity of mixtures containing two active ingredients, A and B: Expected=A+B−(A×B/100)

For test [2], the system named is FIMMI. The test is described as follows: In-water applied weed control, transplanted paddy rice (greenhouse). In kind it is in vivo, Fimbristylis miliacea (L.) Vahl (globe fringerush). The procedure: Weed seeds or nutlets of the desired test plant species were planted in puddled soil (mud) prepared by mixing a shredded, non-sterilized mineral soil (50.5 percent silt, 25.5 percent clay, and 24 percent sand, with a pH of about 7.6 and an organic matter content of about 2.9 percent) and water at a 1:1 volumetric ratio. The prepared mud was dispensed in 365 mL aliquots into 16-ounce (oz.) non-perforated plastic pots with a surface area of 86.59 square centimeters (cm^2) leaving a headspace of 3 centimeters (cm) in each pot. Rice seeds were planted in Sun Gro MetroMix® 306 planting mixture, which typically has a pH of 6.0 to 6.8 and an organic matter content of about 30 percent, in plastic plug trays. Seedlings at the second or third leaf stage of growth were transplanted into 860 mL of mud contained in 32-oz. non-perforated plastic pots with a surface area of 86.59 cm^2 4 days prior to herbicide application. The paddy was created by filling the headspace of the pots with 2.5 to 3 cm of water. When required to ensure good germination and healthy plants, a fungicide treatment and/or other chemical or physical treatment was applied. The plants were grown for 4-22 days in a greenhouse with an approximate 14 hour (h) photoperiod which was maintained at about 29° C. during the day and about 26° C. during the night. Nutrients were added as Osmocote® (17:6:10, N:P:K+minor nutrients) at 2 g per cup. Water was added on a regular basis to maintain the paddy flood, and supplemental lighting was provided with overhead metal halide 1000-Watt lamps as necessary. The plants were employed for testing when they reached the first through fourth true leaf stage. […]
Treatment requirements for each compound or fungicidal component were calculated based upon the rates being tested, the concentration of active ingredient or acid equivalent in the formulation, an application volume of 2 mL per component per pot, and an application area of 86.59 cm^2 per pot.
For formulated compounds, a measured amount was placed in an individual 100 or 200 mL glass vial and was dissolved in a volume of 1.25% (v/v) Agri-Dex® crop oil concentrate to obtain application solutions. […]
The treated plants and control plants were placed in a greenhouse as described above and water was added as needed to maintain a paddy flood. After approximately 3 weeks the condition of the test plants as compared with that of the untreated plants was determined visually and scored on a scale of 0 to 100 percent where 0 corresponds to no injury or growth inhibition and 100 corresponds to complete kill. […]

For `COc1c(Cl)ccc(-c2nc(C(=O)OCc3ccccc3)c(Cl)c(N)c2F)c1F` [Compound A Benzyl Ester], the “Visual Weed Control (%) - 21 DAA CYPIR Obs” value in test [1] (r23-24 ester 16/32 g ae/ha alone, r25 pyroquilon 925 g ai/ha alone, r26-27 ester 16/32 + 925) is 85% and 99%; in test [1] (r26-27 ester 16/32 g ae/ha alone, r28-29 isoprothiolane 266/533 g ai/ha alone, r30-33 ester 16/32 at each of 266, 533), 85% and 99%. Besides, the “Visual Weed Control (%)—21 DAA CYPIR Obs” value in test [1] (r29-30 ester 8/16 g ae/ha alone, r31-33 kasugamycin 17.5/35/70 g ai/ha alone, r34-39 ester 8/16 at each of 17.5, 35, 70) is 50% and 70%; in test [1] (r45 ester 8 g ae/ha alone, r46-48 hexaconazole 25/50/100 g ai/ha alone, r49-51 ester 8 + 25/50/100), 35%. Also, the “Visual Weed Control (%) - 22 DAA FIMMI Obs” value in test [2] (Compound A Benzyl Ester 4.38 g ae/ha) came to 50%; in test [2] (Compound A Benzyl Ester 8.75 g ae/ha) it was 80%; in test [2] (Compound A Benzyl Ester 17.5 g ae/ha) it was 100%.
